Measurements: patent US10899710B2, “Pyridines and their use in the treatment of cancer” (The United States of America, as represented by the …, priority 2015, dated 2021)
Structures can show the parent of a compound that is named as a salt. Where two headings read alike, the source gives them in different places.

What was measured:
FaDu cell line = experiment: Cell viability inhibition, FaDu cell line; format: cell-based; conditions: Homo sapiens, Biological Example 4, 72 hrs
Procedure: Cell lines were plated 2000 cells/well in 96-well black optical plates in the presence of 10% FBS media containing 25 nM selenite. The following day cells were treated with various concentrations of the compound of Example 1 (0.1% DMSO final) and incubated for 72 hrs. After the incubation Cell-Quanti Blue reagent was added to each well and incubated for additional 3 hrs. Fluorescence was read ex:530 nm/em:590 nm, and percent of viability was determined using DMSO vehicle and no cell (blank) controls.
Using the assays described in Biological Example 1 to assess inhibition of recombinant TrxR1 and GR, the following IC50 values were obtained for the examples described herein. Further, following the protocol described in Biological Example 2, the following IC50 values were obtained for inhibition of cell viability using the FaDu cell line.

[1] = molecular target: T1, recombinant thioredoxin reductase 1 (TrxR1) (Homo sapiens, UniProt Q16881); experiment: Inhibition of recombinant TrxR1 (DTNB assay); format: biochemical; conditions: read-out: TrxR inhibition (IC50)
T1 sequence (Q16881 151-649 limits assumed): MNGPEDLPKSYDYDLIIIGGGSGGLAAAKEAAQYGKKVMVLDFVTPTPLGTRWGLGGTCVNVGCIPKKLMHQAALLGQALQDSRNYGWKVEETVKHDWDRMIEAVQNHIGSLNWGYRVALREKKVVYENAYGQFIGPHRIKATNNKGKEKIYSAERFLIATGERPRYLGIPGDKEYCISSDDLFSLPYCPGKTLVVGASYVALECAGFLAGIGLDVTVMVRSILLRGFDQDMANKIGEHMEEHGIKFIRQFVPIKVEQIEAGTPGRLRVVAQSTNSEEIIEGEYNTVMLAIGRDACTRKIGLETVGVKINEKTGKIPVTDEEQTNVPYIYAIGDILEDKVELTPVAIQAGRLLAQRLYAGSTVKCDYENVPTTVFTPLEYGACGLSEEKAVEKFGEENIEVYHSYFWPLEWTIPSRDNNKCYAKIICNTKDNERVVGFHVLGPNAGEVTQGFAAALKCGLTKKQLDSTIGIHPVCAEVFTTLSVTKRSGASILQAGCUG
Procedure: (§1) Small molecule inhibition of recombinant thioredoxin reductase 1 (TrxR1) and gluthathione reductase (GR) was examined in 96-well plate format. 15 nM TrxR1 was incubated in the presence of 250 μM NADPH, 0.1 mg/ml BSA, and various concentrations of the compound of Example 1 (1% DMSO final) in 50 mM Tris (pH 7.5) and 2 mM EDTA buffer for 15 minutes. Following the incubation period, 2.5 mM DTNB was added to each well and the change in O.D. at 412 nm was followed. Percent activity was determined using DMSO vehicle and no TrxR1 (blank) controls. 2 nM GR was incubated in the presence of 250 μM NADPH, 0.1 mg/ml BSA, and various concentrations of compounds (1% DMSO final) in 50 mM Tris (pH 7.5) and 2 mM EDTA buffer for 15 minutes. Following the incubation period, 1 mM GSSG was added to each well and the change in O.D. at 340 nm was followed. Percent activity was determined using DMSO vehicle and no GR (blank) controls.

[2] = molecular target: T2, gluthathione reductase (GR) (Homo sapiens, UniProt P00390); experiment: Inhibition of recombinant GR (GSSG assay); format: biochemical
T2 sequence (P00390 44-522): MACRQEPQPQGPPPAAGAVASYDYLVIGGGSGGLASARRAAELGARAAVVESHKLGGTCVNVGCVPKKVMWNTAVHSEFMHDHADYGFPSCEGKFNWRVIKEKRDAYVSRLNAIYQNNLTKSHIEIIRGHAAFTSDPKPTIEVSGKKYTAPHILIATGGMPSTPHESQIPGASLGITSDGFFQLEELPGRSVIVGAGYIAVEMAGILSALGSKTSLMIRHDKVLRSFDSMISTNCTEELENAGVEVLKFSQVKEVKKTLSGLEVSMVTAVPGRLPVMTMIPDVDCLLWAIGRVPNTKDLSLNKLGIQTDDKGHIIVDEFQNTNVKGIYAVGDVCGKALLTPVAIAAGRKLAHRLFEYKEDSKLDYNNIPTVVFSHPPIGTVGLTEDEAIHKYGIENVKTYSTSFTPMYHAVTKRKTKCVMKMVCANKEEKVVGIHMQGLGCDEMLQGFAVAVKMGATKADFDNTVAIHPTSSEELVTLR
Procedure: as §1

[3] = Biological Example 1, 15 nM TrxR1, 15 minutes incubation
[4] = Biological Example 1, 2 nM GR, 15 minutes incubation

SMILES | IC50 (FaDu cell line) [nM] | IC50 ([1]; Biological Example 4) [nM] | IC50 ([2]; Biological Example 4) [nM] | IC50 [1, 3] [nM] | IC50 [2, 4] [nM]
CN(C)c1ccc([N+](=O)[O-])c(S(=O)(=O)c2ccccc2)n1 [Example 14, N,N-dimethyl-5-nitro-6-(phenylsulfonyl)pyridin-2-amine] | 5320 | 345 | > 100000 | – | –
O=[N+]([O-])c1cccnc1S(=O)(=O)c1ccccc1 [Example 2, 3-Nitro-2-(phenylsulphonyl)pyridine Trifluoroacetate] | 1420 | 289 | > 100000 | 155 | > 100000
COc1ccc(S(=O)(=O)c2nc(Cl)ccc2[N+](=O)[O-])cc1 [Example 9, 6-Chloro-2-((4-methoxyphenyl)sulfonyl)-3-nitropyridine] | 510 | 70 | 41700 | – | –
O=[N+]([O-])c1cccnc1S(=O)(=O)c1ccc(Cl)cc1 [Example 5, 2-((4-Chlorophenyl)sulphonyl)-3-nitropyridine Trifluoroacetate] | 1840 | 151 | 93000 | 98 | 47900
O=[N+]([O-])c1ccc(Cl)nc1S(=O)(=O)c1ccccc1 [Example 10, 6-Chloro-3-nitro-2-(phenylsulfonyl)pyridine] | 250 | 56 | 14500 | – | –
Cc1ccc(S(=O)(=O)c2nc(Cl)ccc2[N+](=O)[O-])cc1 [Example 11, 6-Chloro-3-nitro-2-tosylpyridine] | 390 | 40 | 23700 | – | –
COc1ccc(S(=O)(=O)c2nc(N(C)C)ccc2[N+](=O)[O-])cc1 [Example 12, 6-((4-Methoxyphenyl)sulfonyl)-N,N-dimethyl-5-nitropyridin-2-amine] | 7890 | 513 | > 100000 | – | –
Cc1ccc(S(=O)(=O)c2nc(N(C)C)ccc2[N+](=O)[O-])cc1 [Example 15, N,N-dimethyl-5-nitro-6-tosylpyridin-2-amine] | 5910 | 438 | > 100000 | – | –
Cc1ccc(S(=O)(=O)c2ncccc2[N+](=O)[O-])cc1 [Example 3, 3-Nitro-2-tosylpyridine Hydrochloride] | 2550 | 221 | > 100000 | 282 | > 100000
COc1ccc([N+](=O)[O-])c(S(=O)(=O)c2ccccc2)n1 [Example 4, 6-Methoxy-3-nitro-2-(phenylsulphonyl)pyridine Trifluoroacetate] | 3260 | 24 | 30800 | 24 | 25200
COc1ccc([N+](=O)[O-])c(S(=O)(=O)c2ccc(C)cc2)n1 [Example 6, 6-Methoxy-3-nitro-2-tosylpyridine] | 1380 | 103 | > 100000 | – | –
O=[N+]([O-])c1ccc(Cl)nc1S(=O)(=O)c1ccc(Cl)cc1 [Example 8, 6-Chloro-2-((4-chlorophenyl)sulfonyl)-3-nitropyridine] | 840 | 16 | 3570 | – | –
CN(C)c1ccc([N+](=O)[O-])c(S(=O)(=O)c2ccc(Cl)cc2)n1 [Example 13, 6-((4-Chlorophenyl)sulfonyl)-N,N-dimethyl-5-nitropyridin-2-amine] | 12900 | 176 | > 100000 | – | –
COc1ccc(S(=O)(=O)c2nc(OC)ccc2[N+](=O)[O-])cc1 [Example 7, 6-Methoxy-2-((4-methoxyphenyl)sulfonyl)-3-nitropyridine] | 2750 | 228 | > 100000 | – | –
